Assay results published in patent US10131652B2, “Pyrimidinyloxy benzene derivatives as herbicides” (E. I. DU PONT DE NEMOURS AND COMPANY, priority 2014, dated 2018).
Like-named read-outs stand apart in the source and are kept apart here.

Assays:
Assay in all cases: Test D pre-/postemergence plant response
Format in all cases: in vivo
[1] = tested on: waterhemp (common waterhemp, Amaranthus rudis); conditions: Amaranthus tuberculatus; for pest or weed control at 31 g/ha: 31 g ai/ha; for pest or weed control at 62 g/ha: 62 g ai/ha; for pest or weed control at 125 g/ha: 125 g ai/ha
Method in brief: (§1)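 0 = no effect, 100 = complete control: plants were scored this way by visual comparison with controls 13 to 15 days post-treatment. Application was preemergence to sown loam/sand pots or postemergence to 2–18 cm seedlings in peat-based mix.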

[2] = tested on: winter wheat (Triticum aestivum); conditions: Triticum aestivum; for plant injury at 31 g/ha: 31 g ai/ha; for plant injury at 62 g/ha: 62 g ai/ha; for plant injury at 125 g/ha: 125 g ai/ha
Method in brief: as §1

[3] = tested on: lambsquarters (Chenopodium album); conditions: Chenopodium album; for pest or weed control at 31 g/ha: 31 g ai/ha; for pest or weed control at 62 g/ha: 62 g ai/ha; for pest or weed control at 125 g/ha: 125 g ai/ha
Method in brief: as §1

soybean (Glycine max) = conditions: Glycine max; for plant injury at 31 g/ha: 31 g ai/ha; for plant injury at 62 g/ha: 62 g ai/ha
Method in brief: as §1

[4] = tested on: velvetleaf (Abutilon theophrasti); conditions: Abutilon theophrasti; for pest or weed control at 31 g/ha: 31 g ai/ha; for pest or weed control at 62 g/ha: 62 g ai/ha; for pest or weed control at 125 g/ha: 125 g ai/ha
Method in brief: as §1

[5] = post-emergence, Postemergence, scale 0 to 100, 0 no effect, 100 complete control, read-out: Plant response rating, Waterhemp
[6] = pre-emergence, Preemergence, scale 0 to 100 (0 no effect, 100 complete control), read-out: Plant response rating, Waterhemp
[7] = post-emergence, Postemergence, scale 0 to 100, 0 no effect, 100 complete control, read-out: Plant response rating, Wheat
[8] = pre-emergence, Preemergence, scale 0 to 100 (0 no effect, 100 complete control), read-out: Plant response rating, Wheat
[9] = post-emergence, Postemergence, scale 0 to 100, 0 no effect, 100 complete control, read-out: Plant response rating, Lambsquarters
[10] = pre-emergence, Preemergence, scale 0 to 100 (0 no effect, 100 complete control), read-out: Plant response rating, Lambsquarters
[11] = pre-emergence, Preemergence, scale 0 to 100 (0 no effect, 100 complete control), read-out: Plant response rating, Soybean
[12] = post-emergence, Postemergence, scale 0 to 100, 0 no effect, 100 complete control, read-out: Plant response rating, Velvetleaf
[13] = pre-emergence, Preemergence, scale 0 to 100 (0 no effect, 100 complete control), read-out: Plant response rating, Velvetleaf

Compound Fc1cccc(Oc2ncc(Cl)cn2)c1-c1cc(C(F)F)no1 [Compound 144, 5-chloro-2-[2-[3-(difluoromethyl)-5-isoxazolyl]-3-fluorophenoxy]pyrimidine] has a pest or weed control at 31 g/ha ([1]; post-emergence, Postemergence, scale 0 to 100 (0 no effect, 100 complete control), read-out: Waterhemp plant response rating) of 85%, a pest or weed control at 62 g/ha [1, 5] of 100% and a pest or weed control at 125 g/ha [1, 5] of 100%. For the same compound, the pest or weed control at 125 g/ha ([1]; pre-emergence, Preemergence, read-out: Plant response rating (scale 0 to 100), Waterhemp) was 100%, the pest or weed control at 16 g/ha ([1]; pre-emergence, Preemergence, 16 g ai/ha, scale 0 to 100 (0 no effect, 100 complete control), read-out: Plant response rating, Waterhemp) was 100% and the pest or weed control at 31 g/ha [1, 6] was 100%. The pest or weed control at 62 g/ha [1, 6] was 100%, the plant injury at 31 g/ha ([2]; post-emergence, Postemergence, scale 0 to 100 (0 no effect, 100 complete control), read-out: Wheat plant response rating) was 10% and the plant injury at 62 g/ha [2, 7] was 10%. The plant injury at 125 g/ha [2, 7] was 10%, the plant injury at 125 g/ha ([2]; pre-emergence, Preemergence, read-out: Plant response rating (scale 0 to 100), Wheat) was 25% and the plant injury at 16 g/ha ([2]; pre-emergence, Preemergence, 16 g ai/ha, scale 0 to 100 (0 no effect, 100 complete control), read-out: Plant response rating, Wheat) was 0%. For the same compound, the plant injury at 31 g/ha [2, 8] was 5%, the plant injury at 62 g/ha [2, 8] was 25% and the pest or weed control at 31 g/ha ([3]; post-emergence, Postemergence, scale 0 to 100 (0 no effect, 100 complete control), read-out: Lambsquarters plant response rating) was 80%. The pest or weed control at 62 g/ha [3, 9] was 90%, the pest or weed control at 125 g/ha [3, 9] was 95% and the pest or weed control at 125 g/ha ([3]; pre-emergence, Preemergence, read-out: Plant response rating (scale 0 to 100), Lambsquarters) was 100%. The pest or weed control at 16 g/ha ([3]; pre-emergence, Preemergence, 16 g ai/ha, scale 0 to 100 (0 no effect, 100 complete control), read-out: Plant response rating, Lambsquarters) was 100%, the pest or weed control at 31 g/ha [3, 10] was 100% and the pest or weed control at 62 g/ha [3, 10] was 100%. It also gave a plant injury at 31 g/ha (soybean (Glycine max); post-emergence, Postemergence, scale 0 to 100 (0 no effect, 100 complete control), read-out: Soybean plant response rating) of 80%, a plant injury at 62 g/ha (soybean (Glycine max); post-emergence, Postemergence, scale 0 to 100, 0 no effect, 100 complete control, read-out: Plant response rating, Soybean) of 95% and a plant injury at 125 g/ha (soybean (Glycine max); pre-emergence, Preemergence, 125 g ai/ha, read-out: Plant response rating (scale 0 to 100), Soybean) of 95%. For the same compound, the plant injury at 16 g/ha (soybean (Glycine max); pre-emergence, Preemergence, 16 g ai/ha, scale 0 to 100 (0 no effect, 100 complete control), read-out: Plant response rating, Soybean) was 35%, the plant injury at 31 g/ha (soybean (Glycine max); [11]) was 75% and the plant injury at 62 g/ha (soybean (Glycine max); [11]) was 90%. The pest or weed control at 31 g/ha ([4]; post-emergence, Postemergence, scale 0 to 100 (0 no effect, 100 complete control), read-out: Velvetleaf plant response rating) was 55%, the pest or weed control at 62 g/ha [4, 12] was 75% and the pest or weed control at 125 g/ha [4, 12] was 98%. For the same compound, the pest or weed control at 125 g/ha ([4]; pre-emergence, Preemergence, read-out: Plant response rating (scale 0 to 100), Velvetleaf) was 100%, the pest or weed control at 16 g/ha ([4]; pre-emergence, Preemergence, 16 g ai/ha, scale 0 to 100 (0 no effect, 100 complete control), read-out: Plant response rating, Velvetleaf) was 100% and the pest or weed control at 31 g/ha [4, 13] was 100%. The pest or weed control at 62 g/ha [4, 13] was 100%.
